Test results from patent US20160263109A1, “P13K INHIBITOR FOR TREATMENT OF RESPIRATORY DISEASE” (GLAXOSMITHKLINE INTELLECTUAL PROPERTY DEVELOPMENT LIMITED, priority 2013, published 2016).
Counter-ions that a name gives are not always drawn.

How the values were obtained:
[1] = system: lung gene expression; assay: Affymetrix GeneChip lung gene expression in S. Pneumoniae-infected mice; format: in vivo; details: lungs of S. Pneumoniae-infected mice at various timepoints after infection; genes with minimum 1.5 fold-change, p<0.05; n=6
Protocol: (§1) Germ-free C57BL/6 male and female mice aged 10-12 weeks were intranasally administered with 0.2% Tween-80/saline vehicle or 0.2 mg/kg micronized 6-(1H-indol-4-yl)-4-(5-{[4-(1-methylethyl)-1-piperazinyl]methyl}-1,3-oxazol-2-yl)-1H-indazole hydrochloride in the same vehicle. Compound dosing was carried out twice daily for eleven days under anaesthesia using 3% isoflurane for induction and 2% isoflurane for maintenance. At the start of day two, and one hour after administering 6-(1H-indol-4-yl)-4-(5-{[4-(1-methylethyl)-1-piperazinyl]methyl}-1,3-oxazol-2-yl)-1H-indazole hydrochloride or vehicle, mice were anaesthetized with isoflurane as above and infected intranasally with 1×10^7 CFU of S. pneumoniae strain TIGR4. S. Pneumoniae was obtained and prepared as described previously (see, for example, Infect. Immun. December 2011; 79(12): 4965-4976) and given in an inoculum of 50 μl PBS per mouse. Mice were monitored three times daily and assessed using a defined mortality-endpoint, where mice displaying three or more of the limiting clinical signs stated in Home Office Project Licence PPL 70/7661 were culled.
Each band corresponds to a single probe and intensity signifies fold change, as indicated in the legend.

[2] = system: S. pneumoniae strain TIGR4; assay: Streptococcus pneumoniae infection in mice, survival by defined mortality-endpoint; format: in vivo; details: C57BL/6 mice, 0.2 mg/kg intranasal twice daily for eleven days, infected intranasally with 1×10^7 CFU S. pneumoniae TIGR4; n=60; Mantel-Cox **p<0.005
Protocol: as §1

SMILES: CC(C)N1CCN(Cc2cnc(-c3cc(-c4cccc5[nH]ccc45)cc4[nH]ncc34)o2)CC1 [6-(1H-indol-4-yl)-4-(5-{[4-(1-methylethyl)-1-piperazinyl]methyl}-1,3-oxazol-2-yl)-1H-indazole hydrochloride]
- lung gene expression compared to vehicle controls [1]: altered lung gene expression
- defined mortality-endpoint (percentage survival) compared to vehicle controls [2]: reduced a defined mortality-endpoint
